Format in all cases: cell-based, human
For assay [1], the system named is hES cells. Briefly: ELISA-based GCTM-2 quantification in hES cells (Example 2). To be noted: treated 2 weeks, serum-free; n=3. The protocol:
hES-3 cells were cultured as previously described^1. The serum-free culture medium consisted of DMEM (without sodium pyruvate, glucose 4500 mg/l, Invitrogen, Mount Waverley, VIC, Australia) supplemented with insulin/transferrin/selenium 1%, β-mercaptoethanol 0.1 mM, NEAA 1%, glutamine 2 mM, Hepes 25 mM, penicillin 50 U/ml and streptomycin […] (all from Invitrogen). Media was changed every 2 days and cells were passaged every week S1P and dihydro-S1P were obtained from Biomol (Plymouth Meeting, Pa., USA). LPA was obtained from Sigma (Castle Hill, NSW, Australia). Extemporaneous dilutions of all lipids were made in water containing 0.1% fatty acid-free bovine serum albumin (BSA) (Sigma). S1P and dihydro-S1P were used at […]. Human PDGF-AB, PDGF-AA, PDGF-BB were from Prepro Tech Inc. (Rocky Hill, N.J., USA) and were used at 20 ng/ml.
Cells were fixed in 100% ethanol and immunostained with GCTM-2 followed by alkaline phosphatase-coupled secondary antibodies (Dako). Alkaline phosphatase activity was detected by adding a solution of 4-nitrophenyl phosphate (Roche), and the concentration of the reaction product was determined by reading the optical density (OD) at 405 nm. In order to validate the technique as an accurate indicator of the proportion of GCTM-2 positive cells, standard curves were carried out with the embryonal carcinoma cell line GCT27C4, known to express GCTM-2^20.

Assay [2] has as its system hES cells. The experiment in a line: Direct observation of hES colonies in serum-depleted medium (Example 4). The protocol:
(A) hES cells grown with feeder, before the depletion in serum. (B) hES cells grown without serum after 8 days (B, C) and 12 days (D, E), in absence (B, D) or presence of S1P (C, E, 10 μM).
For direct observation, hES-3 cells were coated into 12-well plates (3 colonies per well), with or without mouse embryonic feeders (MEFs). The day following the plating, cells were incubated with the different agents in serum free medium containing insulin, transferring and selenium. Media was changed the 2nd day and then every 2 days.

Assay [3] deals with hES cells. The experiment in a line: Double immunostaining GCTM-2/PCNA of dissociated hES cells (Example 4). To be noted: 4 days without serum; S1P 10 μM. The protocol: Double staining experiments were performed using antibodies for PCNA and GCTM-2.
For immunostaining, hES-3 cells were coated on chamber slides after mechanical dissociation, in order to obtain a monolayer culture. The day following the plating, cells were incubated with the different agents in a media depleted in serum. Media was changed the 2nd day and the cells were fixed 4 days after the first treatment.
Cells were washed in PBS, fixed with MeOH, and immunostaining was performed, using the specific stem cell marker antibody GCTM-2, and the specific cell proliferation marker PCNA. Cells were then washed and the nucleuses were stained with Hoechst-33342 (1 μg/ml). Slides were mounted and then observed by fluorescent microscopy. Cells were then counted in order to determine the ratio of proliferating stem cells within the overall population.

Assay [4] concerns ERKs (Erk1 and Erk2) in hES cells. Briefly: ERK phosphorylation Western blot in hES cells (Example 5). The protocol: Western blots experiments were performed using protein lysate from hES cells. (A) Cells were pre-treated or not with U0126 (30 μM, 1 hr) and incubated for 5 min in the absence (C, control) or presence of S1P (10 μM). (B) Cells were incubated for different time periods in the absence or presence of S1P (10 μM). (C) Cells were incubated for 5 min with various concentrations of S1P. The phosphorylation of Erk1 and Erk2 (P-Erk1 and P-Erk2) was assessed by immunoblotting with a polyclonal anti-active MAP kinase as described in Materials and Methods. After a stripping procedure, the same blots reprobed with a monoclonal anti-MAP kinase, allowed the detection of Erk1 and Erk2.
For immunoblot analysis, cells were transferred into 24 well plates (8 colonies per well) without MEFs, and 24 hr later, were grown in the absence of serum for 18 hrs.
In some experiments, cells were pre-treated for 1 hr with U0126 (30 μM) or for 18 hrs with PTX (100 μg/ml).
hES3 cells were lysed following removal of the supernatants by addition of a reducing loading buffer (2% SDS, 62.5 mM Tris pH 6.8, 0.1 M DTT, 0.01% bromophenol blue) containing 1 mM sodium orthovanadate. Samples were boiled for 10 min and centrifuged at 13000 g for 15 min, and protein lysates (approx. 80 μg) were separated by SDS-polyacrylamide gel electrophoresis (10% polyacrylamide, w/v). Proteins were transferred to nitrocellulose (Hybond-ECL, Amersham) and immunoblotting was carried out with rabbit polyclonal anti-active mitogen-activated protein (MAPK) antibodies raised against a dually phosphorylated MAPK peptide (Promega, Madison, Wis., USA). Peroxidase-coupled secondary antibody (Dako) was detected by exposure of autoradiographic films in the presence of a chemiluminescent detection reagent (ECL, Amersham). Stripping of antibodies was achieved by incubating the membrane during 30 min at 50° C. in a buffer containing 100 mM mercaptoethanol, 2% SDS, 62.5 mM Tris-HCl pH 6.7. The membrane was then reprobing with rabbit polyclonal anti-ERK1/2 antibodies (Promega), and then with peroxidase-coupled secondary antibodies (Dako).
A general note: A western blot detects proteins with antibodies after separation by electrophoresis.

The subject of assay [5] is hES cells. The experiment in a line: GCTM-2 quantification by alkaline phosphatase activity, hES cells on MEF, serum-free (Example 1). To be noted: 8 days serum-free on MEF; S1P 10 μM, PDGF 20 ng/ml; n=7. The protocol:
(A) hES cells grown with MEF, before the depletion of serum from the medium. (B, C, D, E) hES cells grown without serum after 8 days, in the absence (B) or in the presence of S1P (10 μM) (C), PDGF (20 ng/ml) (D), S1P (10 μM) plus PDGF (20 ng/ml) (E). (F) hES cells grown without serum, in the presence or in the absence (control) of S1P (10 μM), PDGF (20 ng/ml), S1P (10 μM) plus PDGF (20 ng/ml). In A-E, data are representative of at least 3 independent experiments. In F, data expressed as percentages of alkaline phosphatase activity in absence of serum for eight days (% of control), are the means±SEM of at least 2 independent experiments, each run in triplicate.
hES-3 cells plated with MEF, were fixed in ethanol and immunostained with GCTM-2 and then with an alkaline phosphatase-coupled secondary antibody (Dako). The activity of alkaline phosphatase was detected by adding a solution of 4-nitrophenyl phosphate (Roche, Mannheim, Germany), followed by reading the optical density (OD) at 405 nm. In order to validate the technique as a relevant indicator of the proportion of GCTM-2 positive cells, standard curves were done with the teratocarcinoma cell line GCT27C4, known to express GCTM-2.

For `CCCCCCCCCCCCC/C=C/[C@@H](O)[C@@H](N)COP(=O)(O)O` [S1P, Sphingosine-1-phosphate], the “more GCTM2+ than the controls” value in assay [1] is 18.0±17.0%. Also, in assay [2] (S1P 10 μM 8 days, LPA up to 50 μM 12 days), the “growth/differentiation of hES colonies on MEFs” value was “more compact and less differentiated”. The “effect on cell differentiation, hES cells grown without MEFs” value in assay [2] (without MEFs, n=3) is “inhibitory effect”. Also, the “proliferating rate of hES cells (PCNA) versus control” value in assay [3] is on record as “no marked difference”. In assay [4] (5 min, various concentrations of S1P), the “concentration dependence of ERKs stimulation” value is “concentration dependant manner”. Moreover, the “duration of ERKs stimulation” value in assay [4] (S1P 10 μM) was “at least 60 min”. In addition, in assay [4] (hES cells, 5 min, S1P 10 μM), the “phosphorylation of ERKs” value was “stimulated the phosphorylation of ERKs”.

Consider PDGF, for which the “more GCTM2+ than the control cells (alkaline phosphatase activity)” value in assay [5] is given as 16.6±7.0%. Also, the “more GCTM2+ than the controls” value in assay [1] was determined as 50.3±18.4%.

Values taken from patent publication US7604990B2, “Methods of regulating differentiation in stem cells” (ES Cell International Pte Ltd., priority 2002, dated 2009).
